This note sets out measurements from the supplement of paper PMC10920090.

Structures are written as SMILES.

Assay [1] concerns MDA-MB-231. The assay can be described thus: drug sensitivity score (DSS), cytotoxicity CellTox Green; higher = more cytotoxic; extreme values may be limits of the assay. The settings on record: 72 h.
Assay [2] concerns MDA-MB-231. In words: drug sensitivity score (DSS), cell viability CellTiter-Glo; higher = more sensitive; extreme values may be limits of the assay. The settings on record: 72 h. A general note: Cellular ATP, detected with luciferase, serves as a proxy for viable cell number.
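Throughout, for drug sensitivity score (DSS), cytotoxicity CellTox Green: DSS summarises each dose–response curve by combining IC50, EC50, maximal inhibition and efficacy across drug concentrations.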

As for `CC[C@]1(O)C[C@@H]2CN(CCc3c([nH]c4ccccc34)[C@@](C(=O)OC)(c3cc4c(cc3OC)N(C)[C@H]3[C@@](O)(C(=O)OC)[C@H](OC(C)=O)[C@]5(CC)C=CCN6CC[C@]43[C@@H]65)C2)C1` [Vinblastine], the drug sensitivity score in assay [1] (shRNA: shPPFIA1_1) was 9 DSS; in assay [1] (shRNA: shScramble), 9.2 DSS; in assay [2] (shRNA: shPPFIA1_1), 0 DSS; in assay [2] (shRNA: shScramble) it was 9.6 DSS.
Take `CCC/C=C/C=C/C(=O)O[C@H]1/C(=C/C(=O)OC)C[C@H]2C[C@H]([C@@H](C)O)OC(=O)C[C@H](O)C[C@@H]3C[C@H](OC(C)=O)C(C)(C)[C@](O)(C[C@@H]4C/C(=C/C(=O)OC)C[C@H](/C=C/C(C)(C)[C@]1(O)O2)O4)O3` [Bryostatin 1]: the drug sensitivity score is 0 DSS in assay [1] (shRNA: shPPFIA1_1), 0 DSS in assay [1] (shRNA: shScramble), 17.2 DSS in assay [2] (shRNA: shPPFIA1_1) and 3.3 DSS in assay [2] (shRNA: shScramble).
Consider `CCN(c1cc(-c2ccc(CN3CCOCC3)cc2)cc(C(=O)NCc2c(C)cc(C)[nH]c2=O)c1C)C1CCOCC1` [Tazemetostat], for which the drug sensitivity score was 0 DSS in assay [1] (shRNA: shPPFIA1_1), 0 DSS in assay [1] (shRNA: shScramble), 1 DSS in assay [2] (shRNA: shPPFIA1_1) and 0 DSS in assay [2] (shRNA: shScramble).
Take `CCCS(=O)(=O)Nc1ccc(F)c(C(=O)c2c[nH]c3ncc(-c4ccc(Cl)cc4)cc23)c1F` [Vemurafenib]: the drug sensitivity score in assay [1] (shRNA: shPPFIA1_1) amounted to 0 DSS; in assay [1] (shRNA: shScramble) it was 1.8 DSS; in assay [2] (shRNA: shPPFIA1_1), 0 DSS; in assay [2] (shRNA: shScramble), 0 DSS.
In the case of `C/C(=C\c1csc(C)n1)[C@@H]1C[C@@H]2O[C@]2(C)CCC[C@H](C)[C@H](O)[C@@H](C)C(=O)C(C)(C)[C@@H](O)CC(=O)O1` [Patupilone], the drug sensitivity score in assay [1] (shRNA: shPPFIA1_1) came out at 8.3 DSS; in assay [1] (shRNA: shScramble) it was 5.8 DSS; in assay [2] (shRNA: shPPFIA1_1) it was 0 DSS; in assay [2] (shRNA: shScramble) it was 12.3 DSS.
The matching figures for `O=C(Nc1cccc(Nc2ncc(Br)c(NCCc3cnc[nH]3)n2)c1)N1CCCC1` [BX-912]: 1.8 DSS, 3.1 DSS, 3.5 DSS and 5.7 DSS.
The matching figures for `Cc1nc(Nc2n[nH]c3c2CN(C(=O)N[C@H](CN(C)C)c2ccccc2)C3(C)C)c2sccc2n1`: 5.8 DSS, 4.8 DSS, 5.6 DSS and 10.1 DSS.
The matching figures for `CCN(CC)CCCC(C)Nc1c2ccc(Cl)cc2nc2ccc(OC)cc12` (centres undefined) [Mepacrine]: 18.5 DSS, 18.6 DSS, 18.6 DSS and 21.1 DSS.
`NC(=O)Nc1sc(-c2ccc(F)cc2)cc1C(N)=O` [TPCA-1]: the drug sensitivity score in assay [1] (shRNA: shPPFIA1_1) amounted to 0.9 DSS; in assay [1] (shRNA: shScramble), 0 DSS; in assay [2] (shRNA: shPPFIA1_1), 0 DSS; in assay [2] (shRNA: shScramble), 1.9 DSS.
On to `COc1cc2c(NC3CCN(C(C)C)CC3)nc(N3CCC(F)(F)CC3)nc2cc1OCCCN1CCCC1` [UNC0642], for which the drug sensitivity score in assay [1] (shRNA: shPPFIA1_1) turned out to be 3 DSS; in assay [1] (shRNA: shScramble), 0.5 DSS; in assay [2] (shRNA: shPPFIA1_1), 3.5 DSS; in assay [2] (shRNA: shScramble) it was 3.1 DSS.
The matching figures for `C[C@]1(c2nc3c(C(N)=O)cccc3[nH]2)CCCN1` [Veliparib]: 0 DSS, 0 DSS, 0 DSS and 0 DSS.
The matching figures for `NC(=S)N/N=C/c1ncccc1N` [Triapine]: 0 DSS, 0 DSS, 0 DSS and 1.2 DSS.
The matching figures for `CC1(C)CCC(c2ccc(Cl)cc2)=C(CN2CCN(c3ccc(C(=O)NS(=O)(=O)c4ccc(N[C@H](CCN5CCOCC5)CSc5ccccc5)c(S(=O)(=O)C(F)(F)F)c4)cc3)CC2)C1` [Navitoclax]: 15.2 DSS, 12.4 DSS, 4.4 DSS and 4.4 DSS.
On to `CC(C)n1cnc2c(NCCc3ccc(O)cc3)nc(-c3csc4ccccc34)nc21` [StemRegenin 1], for which the drug sensitivity score in assay [1] (shRNA: shPPFIA1_1) was found to be 0.8 DSS; in assay [1] (shRNA: shScramble) it was 0.4 DSS; in assay [2] (shRNA: shPPFIA1_1) it was 2.3 DSS; in assay [2] (shRNA: shScramble), 0.2 DSS.
The matching figures for `O=C(O)C(=O)O.[NH-][C@@H]1CCCC[C@H]1[NH-].[Pt+2]` [Oxaliplatin]: 0 DSS, 0 DSS, 0 DSS and 2 DSS.
For the compound `CCCC(CCC)C(=O)O` [Valproic acid], the drug sensitivity score in assay [1] (shRNA: shPPFIA1_1), in assay [1] (shRNA: shScramble), in assay [2] (shRNA: shPPFIA1_1) and in assay [2] (shRNA: shScramble) was 0 DSS in each case.
For `CC(C)(C)NC(=O)[C@H]1CC[C@H]2[C@@H]3CC[C@H]4NC(=O)C=C[C@]4(C)[C@H]3CC[C@]12C` [Finasteride], the drug sensitivity score in assay [1] (shRNA: shPPFIA1_1), in assay [1] (shRNA: shScramble), in assay [2] (shRNA: shPPFIA1_1) and in assay [2] (shRNA: shScramble) was 0 DSS each time.
Turning to `CCN(CC)CCCC(C)Nc1ccnc2cc(Cl)ccc12` (centres undefined) [Chloroquine], the drug sensitivity score in assay [1] (shRNA: shPPFIA1_1) was 5.2 DSS; in assay [1] (shRNA: shScramble), 7.2 DSS; in assay [2] (shRNA: shPPFIA1_1) it was 8.7 DSS; in assay [2] (shRNA: shScramble), 9.4 DSS.
The matching figures for `CN(c1ncccc1CNc1nc(Nc2ccc3c(c2)CC(=O)N3)ncc1C(F)(F)F)S(C)(=O)=O`: 2.5 DSS, 1.8 DSS, 0.5 DSS and 5.8 DSS.
The matching figures for `O=P1(NCCCl)OCCCN1CCCl` (centres undefined) [Ifosfamide]: 0 DSS, 0 DSS, 0 DSS and 0 DSS.
The matching figures for `O=[N+]([O-])c1ccc2c(c1)S(=O)(=O)C=C2` [Stattic]: 4.4 DSS, 7.2 DSS, 6.6 DSS and 9.4 DSS.
Regarding `Cn1nccc1Nc1nccc(-c2ccn([C@H](CO)c3ccc(Cl)c(F)c3)c(=O)c2)n1` [GDC-0994], the drug sensitivity score in assay [1] (shRNA: shPPFIA1_1) was 0 DSS; in assay [1] (shRNA: shScramble), 3 DSS; in assay [2] (shRNA: shPPFIA1_1), 0 DSS; in assay [2] (shRNA: shScramble) it was 3.5 DSS.
Regarding `Nc1cc(C(F)(F)F)c(-c2cc(N3CCOCC3)nc(N3CCOCC3)n2)cn1` [Buparlisib], the drug sensitivity score in assay [1] (shRNA: shPPFIA1_1) is 1.4 DSS; in assay [1] (shRNA: shScramble) it was 0 DSS; in assay [2] (shRNA: shPPFIA1_1), 0.9 DSS; in assay [2] (shRNA: shScramble), 6.2 DSS.
The matching figures for `CC(C)NC[C@@H](C(=O)N1CCN(c2ncnc3c2[C@H](C)C[C@H]3O)CC1)c1ccc(Cl)cc1` [Ipatasertib]: 0 DSS, 0 DSS, 3.3 DSS and 3.7 DSS.
The matching figures for `Cn1cnc2c(F)c(Nc3ccc(Br)cc3F)c(C(=O)NOCCO)cc21` [Binimetinib]: 0 DSS, 2.2 DSS, 0 DSS and 2.7 DSS.
The matching figures for `COc1cc(N2CCN(C)CC2)ccc1Nc1nccc(-c2cn(C)c3cnccc23)n1` [AZ191]: 0 DSS, 2.9 DSS, 3.6 DSS and 6.8 DSS.
As for `O=C(Nc1ccc(-c2ccnc(Nc3ccc(N4CCOCC4)cc3)n2)cc1)C1CCCN1` (centres undefined) [XL019], the drug sensitivity score in assay [1] (shRNA: shPPFIA1_1) came out at 0 DSS; in assay [1] (shRNA: shScramble), 0 DSS; in assay [2] (shRNA: shPPFIA1_1), 0 DSS; in assay [2] (shRNA: shScramble), 0.6 DSS.
As for `O=C(O)CSc1cc(NS(=O)(=O)c2ccc(Br)cc2)c2ccccc2c1O` [UMI-77], the drug sensitivity score in assay [1] (shRNA: shPPFIA1_1) turned out to be 8 DSS; in assay [1] (shRNA: shScramble) it was 18.7 DSS; in assay [2] (shRNA: shPPFIA1_1), 3.2 DSS; in assay [2] (shRNA: shScramble) it was 10.8 DSS.
The matching figures for `CCN1CCN(Cc2ccc(Nc3ncc(F)c(-c4cc(F)c5nc(C)n(C(C)C)c5c4)n3)nc2)CC1` [Abemaciclib]: 0.9 DSS, 0 DSS, 0.9 DSS and 0 DSS.
The matching figures for `O=C(Nc1c[nH]nc1-c1nc2ccc(CN3CCOCC3)cc2[nH]1)NC1CC1` [AT9283]: 0.2 DSS, 0.8 DSS, 0 DSS and 0.5 DSS.
The matching figures for `Cc1nc(C(=O)NCC(=O)O)c(O)c2ccc(Oc3ccccc3)cc12` [FG-4592]: 0 DSS, 0 DSS, 2.2 DSS and 2.9 DSS.
